Laboratory results from article PMC5679017 (Journal of medicinal chemistry, 2016).

Tests used:
mice [1] = details: 2 nmol dose; 3, 4, 5, 6, 16 and 24 hours after administration; cited from earlier work
melanocortin receptors = details: cited from earlier work
mice [2] = experiment: Cannula placement validation with hPYY, food intake; format: in vivo, mouse; details: 2.5 μg human PYY3-36, validated cannulated mice (saline: 0.42 ±0.07 g)

Compound	food intake after ICV administration (previous study) (mice [1])	binding affinity at the melanocortin receptors (reported) (melanocortin receptors)	food eaten four hours after administration (mice [2]) [g]
CC(=O)N[C@@H](Cc1c[nH]cn1)C(=O)N[C@H](Cc1ccccc1)C(=O)N[C@@H](CCCNC(=N)N)C(=O)N[C@@H](Cc1c[nH]c2ccccc12)C(N)=O [Compound 1, Ac-His-DPhe-Arg-Trp-NH2]	decrease food intake	high nanomolar to low micromolar	
hPYY: human PYY3-36 (Bachem) used to verify cannula placement			1.79 ± 0.13
